Measurements from paper PMC11546339, “Conformational Plasticity Enhances the Brain Penetration of a Metabolically Stable, Dual-Functional Opioid-Peptide CycloAnt” (International Journal of Molecular Sciences, 2024).
Where a SMILES comes first, the peptide text is derived from it. Bridges are numbered along the chain shown (N, C = ends). [ ]: non-standard residue; d: D form. 2Abz = Nc1ccccc1C(=O)O; Dap = NC[C@H](N)C(=O)O

Tests used:
[1] = Metabolism by UGTs in mouse liver microsomes (UDPGA); assay type: in vitro ADME; details: 3.07 μM, 0.5 mg/mL microsomes, alamethicin, 5 mM UDPGA, 37 °C, 60 min
Experimental: Next, we examined the level of glucuronidation of CycloAnt in mouse liver microsomes using a method described elsewhere. CycloAnt at a final concentration of 3.07 μM was premixed with 0.5 mg/mL liver microsomes and a channel-forming peptide antibiotic alamethicin at 0 °C. After 15 min, the glucuronidation was initiated by adding the UDP-glucuronosyl transferases (UGTs) substrate uridine-5’-diphospho-α-D-glucuronic acid (UDPGA) to a final concentration of 5 mM and the mixture was incubated at 37 °C [19]. At 0, 5, 15, 30, and 60 min, the incubation mixture was withdrawn and processed. The supernatant was collected and analyzed by LC-MS/MS.
Metabolism by UDP-glucuronosyl transferases (UGTs) in liver microsomes. CycloAnt dissolved in pH 7.2 PBS was diluted to 8 μM. Six hundred microliters of diluted CycloAnt, 800 μL of 0.975 mg/mL mouse liver microsomes, and 14 μL of 0.5 mM alamethicin containing 10 mM MgCl2, were mixed and preincubated on ice for 15 min. The reaction was then initiated by adding 74 μL of 100 mM uridine-5’-diphospho-α-D-glucuronic acid (UDPGA) and incubated at 37 °C for 0, 5, 15, 30, and 60 min. […] The dried sample was reconstituted in 100 μL of 20% acetonitrile and stored at −20 °C before analyzed by LC-MS/MS on the next day. […]

[2] = LC-MS/MS search for metabolites in mouse plasma after i.p. administration; assay type: in vivo; details: mouse plasma 15 min after 10 mg/kg i.p.; from m/z intensity
Experimental: To verify if CycloAnt could be metabolized in vivo, we looked for the possible metabolites (Scheme S1) in a blood sample collected from mice 15 min after i.p. administration of CycloAnt at a dose of 10 mg/kg. The proteins in the mouse plasma were precipitated by ice-cold acetonitrile containing internal standard. Following centrifugation, the supernatant was collected, and analyzed by LC-MS/MS. A total ion current (TIC) scan was conducted for the mass-to-charge ratio (m/z) in the range of 300–1500 for all ions, followed by the targeted narrow range scans. The scans in the range of 650–690 and 325–346 are aimed at detecting the potential [M + 1]^+ and [M + 2]^2+ ions from the Phase I metabolites, the enzymatically cleaved peptides, and intact CycloAnt, respectively (Figure S1 and Figure 2); and the scans in the range of 843–852 and 422–428 are for detecting the potential [M + 1]^+ and [M + 2]^2+ ions from the Phase II glucuronidation, respectively (Figure S3). The [M + 1]^+ and [M + 2]^2+ ions were then extracted from the narrow range scans for the potential enzymatically cleaved products (Figure S1), the Phase I metabolites (Figure S2), and the Phase II UGT metabolites (Figure S3). The relative abundance of the tallest peak was assigned as 100. […]

[3] = tested on: respiration in mice; set-up: method as in PMID 38005269; details: high doses up to 15 times the ED50, mice; cited from earlier work
[4] = tested on: physical dependence in mice; set-up: method as in PMID 38005269; details: chronic administration, naloxone-precipitated withdrawal; cited from earlier work

For C[C@@H](O)[C@@H]1NC(=O)[C@H](CNC(=O)c2ccccc2N)NC(=O)[C@H](NC(=O)[C@@H](N)Cc2ccc(O)cc2)CCCCNC(=O)CNC1=O [CycloAnt] (H-Y[dK][Dap](2Abz)TG; lactam 2-C), which “stability against glucuronidation in mouse liver microsomes (UGTs)” value [1] is on record?
Its value is “stable against glucuronidation”.

And the “concentration of any metabolites relative to CycloAnt in plasma (fold lower)” value [2]?
Its value is 10^3- to-10^4 fold.

What about the respiratory depression [3] of the same molecule?
Its respiratory depression is “does not produce any respiratory depression”.

And the physical dependence [4]?
The physical dependence was “significantly reduced physical dependence”.
